Test results from patent publication US20260206762A1, “PYRIMIDINONE DERIVATIVES AS PESTICIDAL COMPOUNDS” (BASF SE, priority 2022, published 2026).

Experiments:
[1] = tested on: diamond back moth (Plutella xylostella); assay: Diamond back moth (Plutella xylostella) cabbage leaf disc dip test; assay type: in vivo; conditions: for Test according to B.4 (Plutella xylostella) @ 10 ppm: comparison data; for mortality at 800 ppm: Plutella xylostella, foliar, 3rd instar larvae, 72 hours after treatment, read-out: mortality in comparison with untreated controls
Method: B.4 Diamond Back Moth (Plutella xylostella)
The active compound is dissolved at the desired concentration in a mixture of 1:1 (vol:vol) distilled water: acetone. Surfactant (Kinetic) is added at a rate of 0.01% (vol/vol). The test solution is prepared at the day of use. Cabbage leaf discs (60 mm in diameter) are dipped in test solution and air-dried. Treated leaves are placed in petri dishes lined with moistened filter paper and inoculated with ten 3rd instar larvae. Mortality is recorded 72 hours after treatment. Feeding damage is also recorded using a scale of 0-100%.

[2] = tested on: southern armyworm (Spodoptera eridania), 2nd instar larvae; assay: whole plant or invertebrate; conditions: in Phaseolus lunatus, foliar, 96 h, read-out: mortality in comparison with untreated controls
Method: B.5 Southern Armyworm (Spodoptera eridania), 2nd Instar Larvae
The 10,000 ppm solution was serially diluted in 100% cyclohexanone to make interim solutions. These served as stock solutions for which final dilutions were made by the Tecan in 50% acetone:50% water (v/v) into 10 or 20 ml glass vials. A nonionic surfactant (Kinetic®) was included in the solution at a volume of 0.01% (v/v). The vials were then inserted into an automated electrostatic sprayer equipped with an atomizing nozzle for application to plants/insects. Lima bean plants (variety Sieva) were grown 2 plants to a pot and selected for treatment at the 1st true leaf stage. Test solutions were sprayed onto the foliage by an automated electrostatic plant sprayer equipped with an atomizing spray nozzle. The plants were dried in the sprayer fume hood and then removed from the sprayer. Each pot was placed into perforated plastic bags with a zip closure. Ten to 11 armyworm larvae were placed into the bag and the bags zipped closed. Test plants were maintained in a growth room at about 25° C. and about 20-40% relative humidity for 4 days, avoiding direct exposure to fluorescent light (14:10 light:dark photoperiod) to prevent trapping of heat inside the bags. Mortality and reduced feeding were assessed 4 days after treatment, compared to untreated control plants.

[3] = tested on: tobacco budworm (Heliothis virescens); assay: Tobacco budworm (Heliothis virescens) microtiter diet test, egg and larval mortality; assay type: in vivo; conditions: 120 h, egg and larval mortality after 5 days, read-out: mortality in comparison with untreated controls
Method: B.2 Tobacco Budworm (Heliothis virescens)
(§1) For evaluating control of tobacco budworm (Heliothis virescens) the test unit consisted of 96-well-microtiter plates containing an insect diet and 15-25 H. virescens eggs. The compounds were formulated using a solution containing 75% v/v water and 25% v/v DMSO. Different concentrations of formulated compounds were sprayed onto the insect diet at 10 μl, using a custom-built micro atomizer, at two replications. After application, microtiter plates were incubated at about 28±1° C. and about 80±5% relative humidity for 5 days. Egg and larval mortality was then visually assessed.

[4] = tested on: boll weevil (Anthonomus grandis); assay: Boll weevil (Anthonomus grandis) microtiter diet test, egg and larval mortality; assay type: in vivo; conditions: 120 h, egg and larval mortality after 5 days, read-out: mortality in comparison with untreated controls
Method: B.1 Boll Weevil (Anthonomus grandis)
as §1, with “boll weevil (Anthonomus grandis)” for “tobacco budworm (Heliothis virescens)”, “5-10 A. grandis” for “15-25 H. virescens”, “5” for “10”, “25±1°” for “28±1°”, “75±5%” for “80±5%”

[5] = tested on: green peach aphid (Myzus persicae); assay: Green peach aphid (Myzus persicae) systemic artificial diet test; assay type: in vivo; conditions: 72 h, aphid mortality after 3 days, read-out: mortality in comparison with untreated controls
Source text: B.3 Green Peach Aphid (Myzus persicae)
For evaluating control of green peach aphid (Myzus persicae) through systemic means the test unit consisted of 96-well-microtiter plates containing liquid artificial diet under an artificial membrane. The compounds were formulated using a solution containing 75% v/v water and 25% v/v DMSO. Different concentrations of formulated compounds were pipetted into the aphid diet, using a custom built pipetter, at two replications. After application, 5-8 adult aphids were placed on the artificial membrane inside the microtiter plate wells. The aphids were then allowed to suck on the treated aphid diet and incubated at about 23±1° C. and about 50±5% relative humidity for 3 days. Aphid mortality and fecundity was then visually assessed.

Compound | Test according to B.4 (Plutella xylostella) @ 10 ppm [1] [%] | mortality at 300 ppm [2] [%] | mortality at 800 ppm [3] [%] | mortality at 800 ppm [4] [%] | mortality at 800 ppm [1] [%] | mortality at 800 ppm [5] [%]
CCS(=O)(=O)c1cc(C(C)(C)C#N)cnc1-c1cn2c(=O)n(C3CC3)c(C(F)(F)F)cc2n1 [Compound C.4, reference compound] | 25 | – | – | – | – | –
CCS(=O)(=O)c1cc(-c2ccc(F)cc2)cnc1-c1cn2c(=O)n(C3CC3)c(Cl)cc2n1 [I.1, 7-chloro-6-cyclopropyl-2-[3-ethylsulfonyl-5-(4-fluorophenyl)-2-pyridyl]imidazo[1,2-c]pyrimidin-5-one] | – | > 75 | > 75 | > 75 | > 75 | > 75
CCS(=O)(=O)c1cc(C(C)(C)C#N)cnc1-c1cn2c(=O)n(C3CC3)c(Cl)cc2n1 [I.3] | 100 | > 75 | – | > 75 | > 75 | > 75
CCS(=O)(=O)c1cc(-c2ccc(F)cc2)cnc1-c1cn2c(=O)n(C3CC3)c(Br)cc2n1 [I.4, 7-bromo-6-cyclopropyl-2-[3-ethylsulfonyl-5-(4-fluorophenyl)-2-pyridyl]imidazo[1,2-c]pyrimidin-5-one] | – | > 75 | > 75 | > 75 | > 75 | > 75
CCS(=O)(=O)c1cc(-c2ccc(F)cc2)c(C)nc1-c1cn2c(=O)n(C3CC3)c(Cl)cc2n1 [I.5, 7-chloro-6-cyclopropyl-2-[3-ethylsulfonyl-5-(4-fluorophenyl)-6-methyl-2-pyridyl]imidazo[1,2-c]pyrimidin-5-one] | – | > 75 | > 75 | > 75 | > 75 | > 75
